Experimental data from the supplement of paper PMC4862054.

Legend:
Conditions in all cases: incubation time: 72 h
BT-474 [1] = experiment: normalised viability (% of control), CellTiter-Blue; higher = more viable cells (about 100 = DMSO control)
Summary of the method: (§1)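 After 72 h on compound-loaded 384-well plates, breast cancer cell lines received 2.5 µl CellTiter-Blue reagent for 2 h at 37 °C. Fluorescence at 560/590 nm was scaled per plate so that vehicle was 100 and a positive kill control was 0. The value stands for normalised viability at a single listed concentration of the series.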

BT-549 = experiment: as above
Summary of the method: as §1

CAL-120 = experiment: as above
Summary of the method: as §1

CAL-148 [2] = experiment: as above
Summary of the method: as §1

CAL-51 = experiment: as above
Summary of the method: as §1

CAL-85-1 [3] = experiment: as above
Summary of the method: as §1

DU-4475 = experiment: as above
Summary of the method: as §1

HCC1143 = experiment: as above
Summary of the method: as §1

HCC1599 = experiment: as above
Summary of the method: as §1

HCC1937 = experiment: as above
Summary of the method: as §1

HDQ-P1 = experiment: as above
Summary of the method: as §1

Hs578T = experiment: as above
Summary of the method: as §1

MDA-MB-231 = experiment: as above
Summary of the method: as §1

MDA-MB-436 = experiment: as above
Summary of the method: as §1

MDA-MB-453 = experiment: as above
Summary of the method: as §1

MDA-MB-468 [4] = experiment: as above
Summary of the method: as §1

MFM-223 = experiment: as above
Summary of the method: as §1

SK-BR-3 = experiment: as above
Summary of the method: as §1

BT-474 [5] = experiment: normalised viability (% of control), CellTiter-Blue; higher = more viable cells (100 = DMSO, 0 = benzethonium chloride kill control)
Method: (§2)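 DSRT, CellTiter-Blue viability, 72 h incubation. Signal is normalised to DMSO and benzethonium chloride controls. Value is the normalised response at dose 1.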

CAL-85-1 [6] = experiment: as above
Method: as §2

CAL-148 [7] = experiment: drug sensitivity score (DSS), CellTiter-Blue viability (DSS (AUC-based score)); higher = stronger viability inhibition; extreme values may be limits of the assay
Summary of the method: (§3)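 The drug sensitivity score was derived from the area under a fitted dose-response curve. To obtain the curves, breast cancer cells (20 µl suspension) were plated into 384-well plates with compound at 5 or 9 concentrations and kept for 72 h. Viability was measured by CellTiter-Blue fluorescence at 560/590 nm, with each plate normalised to 0.1 % DMSO and a positive kill control.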

MDA-MB-468 [8] = experiment: as above
Summary of the method: as §3

C=CC(=O)N1CCC[C@@H](n2nc(-c3ccc(Oc4ccccc4)cc3)c3c(N)ncnc32)C1
Conditions	normalised viability [%]
BT-474 [1], 1 nM	124
BT-474 [1], 100 nM	45.9
BT-474 [1], 1000 nM	42.1
BT-474 [5], 0.1 nM	107
BT-549, 1 nM	96.6
BT-549, 100 nM	109
BT-549, 1000 nM	118
CAL-51, 0.3 nM	95.9
CAL-51, 3 nM	91
CAL-51, 10 nM	94.3
CAL-85-1 [3], 0.3 nM	87.8
CAL-85-1 [3], 3 nM	84.6
CAL-85-1 [3], 10 nM	96.9
CAL-85-1 [6], 0.1 nM	86.1
CAL-120, 1 nM	86.4
CAL-120, 100 nM	86.4
CAL-120, 1000 nM	97
CAL-148 [2], 0.3 nM	85.8
CAL-148 [2], 3 nM	98.6
CAL-148 [2], 10 nM	96.3
DU-4475, 0.3 nM	91.8
DU-4475, 3 nM	87.4
DU-4475, 10 nM	86.8
HCC1143, 1 nM	76
HCC1143, 100 nM	79
HCC1143, 1000 nM	81.8
HCC1599, 1 nM	104
HCC1599, 100 nM	83.3
HCC1599, 1000 nM	82.6
HCC1937, 1 nM	94.8
HCC1937, 100 nM	101
HCC1937, 1000 nM	89.7
HDQ-P1, 0.3 nM	130
HDQ-P1, 3 nM	106
HDQ-P1, 10 nM	105
Hs578T, 1 nM	123
Hs578T, 100 nM	123
Hs578T, 1000 nM	112
MDA-MB-231, 1 nM	102
MDA-MB-231, 100 nM	101
MDA-MB-231, 1000 nM	111
MDA-MB-436, 1 nM	106
MDA-MB-436, 100 nM	85.8
MDA-MB-436, 1000 nM	94.8
MDA-MB-453, 0.3 nM	112
MDA-MB-453, 3 nM	92.4
MDA-MB-453, 10 nM	77.3
MDA-MB-468 [4], 1 nM	99.9
MDA-MB-468 [4], 100 nM	78.3
MDA-MB-468 [4], 1000 nM	69.3
MFM-223, 1 nM	92.1
MFM-223, 100 nM	83
MFM-223, 1000 nM	56.6
SK-BR-3, 1 nM	91.9
SK-BR-3, 100 nM	24.9
SK-BR-3, 1000 nM	21.7

Conditions	drug sensitivity score
CAL-148 [7]	0
MDA-MB-468 [8]	3.83

CC(=O)Nc1cccc(-n2c(=O)n(C3CC3)c(=O)c3c(Nc4ccc(I)cc4F)n(C)c(=O)c(C)c32)c1
Conditions	normalised viability [%]
BT-474 [1], 0.25 nM	118
BT-474 [1], 25 nM	111
BT-474 [1], 250 nM	122
BT-474 [5], 0.025 nM	100
BT-549, 0.25 nM	87.6
BT-549, 25 nM	92.3
BT-549, 250 nM	86.2
CAL-51, 0.075 nM	103
CAL-51, 0.75 nM	89.4
CAL-51, 2.5 nM	84.4
CAL-85-1 [3], 0.075 nM	102
CAL-85-1 [3], 0.75 nM	93.6
CAL-85-1 [3], 2.5 nM	97
CAL-85-1 [6], 0.025 nM	107
CAL-120, 0.25 nM	113
CAL-120, 25 nM	68.1
CAL-120, 250 nM	47.6
CAL-148 [2], 0.075 nM	107
CAL-148 [2], 0.75 nM	96.2
CAL-148 [2], 2.5 nM	96.6
DU-4475, 0.075 nM	117
DU-4475, 0.75 nM	59.7
DU-4475, 2.5 nM	10.8
HCC1143, 0.25 nM	124
HCC1143, 25 nM	71
HCC1143, 250 nM	64.6
HCC1599, 0.25 nM	93.1
HCC1599, 25 nM	69.8
HCC1599, 250 nM	50.1
HCC1937, 0.25 nM	132
HCC1937, 25 nM	112
HCC1937, 250 nM	89.2
HDQ-P1, 0.075 nM	112
HDQ-P1, 0.75 nM	98.3
HDQ-P1, 2.5 nM	99.3
Hs578T, 0.25 nM	129
Hs578T, 25 nM	84.8
Hs578T, 250 nM	83
MDA-MB-231, 0.25 nM	101
MDA-MB-231, 25 nM	39.6
MDA-MB-231, 250 nM	38.7
MDA-MB-436, 0.25 nM	104
MDA-MB-436, 25 nM	97.8
MDA-MB-436, 250 nM	95
MDA-MB-453, 0.075 nM	107
MDA-MB-453, 0.75 nM	113
MDA-MB-453, 2.5 nM	128
MDA-MB-468 [4], 0.25 nM	110
MDA-MB-468 [4], 25 nM	92.6
MDA-MB-468 [4], 250 nM	74.7
MFM-223, 0.25 nM	98.8
MFM-223, 25 nM	84.5
MFM-223, 250 nM	64.4
SK-BR-3, 0.25 nM	111
SK-BR-3, 25 nM	111
SK-BR-3, 250 nM	97.7

Conditions	drug sensitivity score
CAL-148 [7]	0
MDA-MB-468 [8]	2.67

CCc1cncnc1N1CCN(Cc2nc3ccc(C(F)(F)F)cc3[nH]2)CC1
Conditions	normalised viability [%]
BT-474 [1], 10 nM	115
BT-474 [1], 1000 nM	118
BT-474 [1], 10000 nM	83.7
BT-474 [5], 1 nM	102
BT-549, 10 nM	78.4
BT-549, 1000 nM	102
BT-549, 10000 nM	59.9
CAL-51, 3 nM	94.3
CAL-51, 30 nM	90
CAL-51, 100 nM	91.5
CAL-85-1 [3], 3 nM	102
CAL-85-1 [3], 30 nM	97.4
CAL-85-1 [3], 100 nM	101
CAL-85-1 [6], 1 nM	99
CAL-120, 10 nM	104
CAL-120, 1000 nM	135
CAL-120, 10000 nM	132
CAL-148 [2], 3 nM	119
CAL-148 [2], 30 nM	95.8
CAL-148 [2], 100 nM	114
DU-4475, 3 nM	103
DU-4475, 30 nM	91.6
DU-4475, 100 nM	107
HCC1143, 10 nM	103
HCC1143, 1000 nM	106
HCC1143, 10000 nM	109
HCC1599, 10 nM	77.2
HCC1599, 1000 nM	83
HCC1599, 10000 nM	90.2
HCC1937, 10 nM	108
HCC1937, 1000 nM	107
HCC1937, 10000 nM	86.8
HDQ-P1, 3 nM	116
HDQ-P1, 30 nM	108
HDQ-P1, 100 nM	108
Hs578T, 10 nM	95.4
Hs578T, 1000 nM	122
Hs578T, 10000 nM	88.8
MDA-MB-231, 10 nM	96.9
MDA-MB-231, 1000 nM	98.2
MDA-MB-231, 10000 nM	106
MDA-MB-436, 10 nM	107
MDA-MB-436, 1000 nM	106
MDA-MB-436, 10000 nM	91.7
MDA-MB-453, 3 nM	101
MDA-MB-453, 30 nM	110
MDA-MB-453, 100 nM	103
MDA-MB-468 [4], 10 nM	107
MDA-MB-468 [4], 1000 nM	108
MDA-MB-468 [4], 10000 nM	103
MFM-223, 10 nM	103
MFM-223, 1000 nM	122
MFM-223, 10000 nM	82.7
SK-BR-3, 10 nM	105
SK-BR-3, 1000 nM	104
SK-BR-3, 10000 nM	117

Conditions	drug sensitivity score
CAL-148 [7]	0
MDA-MB-468 [8]	0
